The assay has as its system TFEB. The experiment in a line: TFEB nuclear translocation assay, HeLa wt cells. The format is cell-based. The following applies: 2 hrs compound treatment, Table 1 does not say HeLa wt or TRPML1 KO. The essentials:
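HeLa wt or TRPML1 KO cells treated 2 hrs with compounds at 37° C, fixed in 4% PFA, immunostained with anti-TFEB plus Alexa 488 secondary and Hoechst. Imaged at ×20, four fields/well; read-out is nuclear/perinuclear-ring TFEB intensity ratio, reported as AC50.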

The text below walks through data of US20230104936A1, “TRPML MODULATORS” (Casma Therapeutics, Inc., priority 2019, published 2023).

The structures appear in SMILES notation.

As usually defined, the AC50 is the concentration giving half of the maximal activity seen. Higher therefore signals weaker potency.

As for `CN(C)S(=O)(=O)c1ccc(S(=O)(=O)Nc2ccccc2N2CCN(C(=O)C3CC3(C)C)CC2)cc1` (centres unmarked) [Compound A-427, N4-{2-[4-(2,2-dimethylcyclopropanecarbonyl)piperazin-1-yl]phenyl}-N1,N1-dimethylbenzene-1,4-disulfonamide], the concentration at half-maximal activity (AC50) (Homo sapiens, HeLa, 2 h) was in the range of 2010 to 8000 nM.
In turn, `CC(c1cccc(F)c1N1CCC(CN2CCC(F)(F)CC2)CC1)S(=O)(=O)c1ccc(C(F)F)cc1` (single isomer, unassigned) [Compound A-997, 1-((1-(2-(1-((4-(difluoromethyl)phenyl)sulfonyl)ethyl)-6-fluorophenyl)piperidin-4-yl)methyl)-4,4-difluoropiperidine] returned an AC50 (Homo sapiens, HeLa, 2 h) of at most 2000 nM.
The same measure, in the same setting: the figure for `CN(C)S(=O)(=O)c1ccc(S(=O)(=O)Cc2ccccc2N2CCN(C(=O)OCc3ccccc3)CC2)cc1` [Compound A-598, benzyl 4-(2-{[4-(dimethylsulfamoyl)benzenesulfonyl]methyl}phenyl)piperazine-1-carboxylate] is at most 2000 nM; for `CN(C)C1CCCC12CCN(c1ccccc1NS(=O)(=O)c1ccc(S(=O)(=O)N(C)C)cc1)CC2` (centres unmarked) [Compound A-281, N4-{2-[1-(dimethylamino)-8-azaspiro[4.5]decan-8-yl]phenyl}-N1,N1-dimethylbenzene-1,4-disulfonamide] it is at least 10000 nM; for `CS(=O)(=O)c1ccc(S(=O)(=O)Nc2ccccc2N2CCC3(CC2)COCc2ccccc23)cc1` [Compound A-481, N-(2-{1,3-dihydrospiro[2-benzopyran-4,4′-piperidin]-1′-yl}phenyl)-4-methanesulfonylbenzene-1-sulfonamide] it is at most 2000 nM.
On the same count and under the same terms, the result for `CN(C)S(=O)(=O)c1ccc(S(=O)(=O)Nc2ccccc2N2CCC3(CCOC3)CC2)cc1` [Compound A-422, N1,N1-dimethyl-N4-(2-{2-oxa-8-azaspiro[4.5]decan-8-yl}phenyl)benzene-1,4-disulfonamide] reads at most 2000 nM.
Still for that read-out and setting: the figure for `N#Cc1ccc(S(=O)(=O)Nc2ccccc2N2CCC(c3ccc(Cl)cc3F)CC2)cc1` [Compound A-101, N-{2-[4-(4-chloro-2-fluorophenyl)piperidin-1-yl]phenyl}-4-cyanobenzene-1-sulfonamide] is 2010 to 8000 nM; for `CN(C)S(=O)(=O)c1ccc(S(=O)(=O)Nc2cccc(N3CCC(c4ccc(Cl)cc4F)CC3)c2)cc1` [Compound A-46, N4-{3-[4-(4-chloro-2-fluorophenyl)piperidin-1-yl]phenyl}-N1,N1-dimethylbenzene-1,4-disulfonamide] it is at least 10000 nM; for `CN(C)S(=O)(=O)c1ccc(S(=O)(=O)Nc2ccccc2N2CCC(C(C)(C)C)CC2)cc1` [Compound A-353, N4-[2-(4-tert-butylpiperidin-1-yl)phenyl]-N1,N1-dimethylbenzene-1,4-disulfonamide] it is at most 2000 nM.
Under “Homo sapiens, HeLa, 2 h”, `O=S(=O)(CC12CC3CC(CC(C3)C1)C2)Nc1cccc(Cl)c1N1CCOCC1` [Compound A-394, 1-(adamantan-1-yl)-N-[3-chloro-2-(morpholin-4-yl)phenyl]methanesulfonamide] showed an AC50 of 2010 to 8000 nM.
`C[C@@H]1CN(CC2CCN(c3c(F)cccc3NS(=O)(=O)c3ccc(C(F)F)cc3)CC2)C[C@H](C)O1` [Compound A-766, 4-(difluoromethyl)-N-[2-(4-{[(2R,6S)-2,6-dimethylmorpholin-4-yl]methyl}piperidin-1-yl)-3-fluorophenyl]benzene-1-sulfonamide] gave a half-maximal activity concentration (AC50) (Homo sapiens, HeLa, 2 h) of at most 2000 nM.
The same measure, in the same setting: the result for `CN(C)S(=O)(=O)c1ccc(S(=O)(=O)Nc2ccccc2N2CCN(C3CCCCC3(F)F)CC2)cc1` (centres unmarked) [Compound A-626, N4-{2-[4-(2,2-difluorocyclohexyl)piperazin-1-yl]phenyl}-N1,N1-dimethylbenzene-1,4-disulfonamide] reads at most 2000 nM; that for `C[C@H]1COC[C@H](C)N1CC1CN(c2c(F)cccc2NS(=O)(=O)c2ccc(S(=O)(=O)N(C)C)cc2)C1` (stereo in doubt) [Compound A-916, rel-N4-[2-(3-{[(3R,5R)-3,5-dimethylmorpholin-4-yl]methyl}azetidin-1-yl)-3-fluorophenyl]-N1,N1-dimethylbenzene-1,4-disulfonamide], at least 10000 nM; that for `CC1(C)Cc2cc(S(=O)(=O)Nc3ccccc3N3CCN(C(=O)C(C)(C)C)CC3)ccc2O1` [Compound A-514, N-{2-[4-(2,2-dimethylpropanoyl)piperazin-1-yl]phenyl}-2,2-dimethyl-2,3-dihydro-1-benzofuran-5-sulfonamide], at most 2000 nM.
Take `CC(c1cncc(F)c1N1CCC(CN2CCC(F)(F)CC2)CC1)S(=O)(=O)c1ccc(S(=O)(=O)N(C)C)cc1` (centres unmarked) [Compound A-996, 4-[1-(4-{4-[(4,4-difluoropiperidin-1-yl)methyl]piperidin-1-yl}-5-fluoropyridin-3-yl)ethanesulfonyl]-N,N-dimethylbenzene-1-sulfonamide]: where the note is “Homo sapiens, HeLa, 2 h”, the AC50 is at most 2000 nM.
Same read-out and setting: the figure for `CN(C)S(=O)(=O)c1ccc(S(=O)(=O)Nc2cccc(F)c2N2CCC(CN3CCC(F)(F)C3)CC2)cc1` [Compound A-774, N4-(2-{4-[(3,3-difluoropyrrolidin-1-yl)methyl]piperidin-1-yl}-3-fluorophenyl)-N1,N1-dimethylbenzene-1,4-disulfonamide] is at most 2000 nM; for `CC(c1cccc(F)c1N1CCC(CN2C[C@@H](C)O[C@@H](C)C2)CC1)S(=O)(=O)c1ccc(S(=O)(=O)C(F)F)cc1` (stereo partly drawn) [Compound A-800, (2R,6S)-4-[(1-{2-[1-(4-difluoromethanesulfonylbenzenesulfonyl)ethyl]-6-fluorophenyl}piperidin-4-yl)methyl]-2,6-dimethylmorpholine] it is at most 2000 nM.
The same measure, in the same setting: the result for `O=S(=O)(Nc1cc(Cl)ccc1N1CC2(CCC2)OC2(CCC2)C1)c1ccc2c(c1)CCC2` [Compound A-396, N-(5-chloro-2-{5-oxa-11-azadispiro[3.1.3^6.3^4]dodecan-11-yl}phenyl)-2,3-dihydro-1H-indene-5-sulfonamide] reads at most 2000 nM; that for `CCC(C)(C)N1CCN(c2ccccc2NS(=O)(=O)c2ccc(S(=O)(=O)N(C)C)cc2)CC1` [Compound A-455, N1,N1-dimethyl-N4-{2-[4-(2-methylbutan-2-yl)piperazin-1-yl]phenyl}benzene-1,4-disulfonamide], 2010 to 8000 nM.
Same read-out and setting: the result for `CC1(C)Cc2cc(S(=O)(=O)Nc3cccc(F)c3N3CCC(CN4C5CCC4COC5)CC3)ccc2O1` [Compound A-880, N-{3-fluoro-2-[4-({3-oxa-8-azabicyclo[3.2.1]octan-8-yl}methyl)piperidin-1-yl]phenyl}-2,2-dimethyl-2,3-dihydro-1-benzofuran-5-sulfonamide] reads at most 2000 nM; that for `C[C@@H]1CN(CC2CCN(c3c(F)cccc3NS(=O)(=O)c3ccc4c(c3)OC(C)(C)C4)CC2)C[C@H](C)O1` [Compound A-780, N-[2-(4-{[(2R,6S)-2,6-dimethylmorpholin-4-yl]methyl}piperidin-1-yl)-3-fluorophenyl]-2,2-dimethyl-2,3-dihydro-1-benzofuran-6-sulfonamide], at most 2000 nM.
The compound `C[C@@H](c1cccc(F)c1N1CCCCC1)S(=O)(=O)c1ccc(S(=N)(=O)N(C)C)cc1` (single isomer, unassigned) [Compound A-930] gave a concentration at half-maximal activity (AC50) of 2010 to 8000 nM.
For the setting “Homo sapiens, HeLa, 2 h”, `Cc1ccc(S(=O)(=O)Nc2ccccc2N2CCC3(CC2)COC(C)(C)C3)cc1F` [Compound A-692, N-(2-{3,3-dimethyl-2-oxa-8-azaspiro[4.5]decan-8-yl}phenyl)-3-fluoro-4-methylbenzene-1-sulfonamide] showed a half-maximal activity concentration (AC50) of 2010 to 8000 nM.
